Reference: patent publication US20160008243A1, “METHOD OF TREATING HAIR” (priority 2013, published 2016)

Assay: Hair switch straightening test (switch volume after treatment, rinsing, combing and drying)
Experimental: Dark brown European wavy#6 switches of length 25 cm and weight 2 gms, were dosed with 2 ml each of different levels of trans aconitic acid solutions. They were combed straight and left to develop for at least 20 minutes. They were subsequently rinsed for 30 seconds under the tap. They were then combed straight and left to dry overnight. When dry the switches were combed straight and pictures taken. All switches looked straight without the waviness of the pre-treated switches. […] (Here volume refers to the projection of the switch image on to the screen and is given in mm^2).

[1] = 5% solution at pH 2, 2 ml per 2 g switch, at least 20 min, rinsed, dried overnight

O=C(O)CC(O)(CC(=O)O)C(=O)O [Citric acid, reference compound]
% benefit over water (5% solution at pH 2): 33.6%
Volume in mm^2 (projection of the switch image on to the screen) [1]: 9481 mm^2

O=C(O)/C=C(\CC(=O)O)C(=O)O [trans Aconitic acid, trans aconitic acid]
% benefit over water (0.5% solution at pH 2): 15.4%
Volume in mm^2 (projection of the switch image on to the screen) (0.5% solution at pH 2): 12073 mm^2
% benefit over water (1% solution at pH 2): 20.4%
Volume in mm^2 (projection of the switch image on to the screen) (1% solution at pH 2): 11363 mm^2
% benefit over water (2.5% solution at pH 2): 24.6%
Volume in mm^2 (projection of the switch image on to the screen) (2.5% solution at pH 2): 10763 mm^2
% benefit over water (5% solution at pH 2): 40.8%
Volume in mm^2 (projection of the switch image on to the screen) [1]: 8456 mm^2
% benefit over water (5% solution at pH 3): 17.3%
Volume in mm^2 (projection of the switch image on to the screen) (5% solution at pH 3): 11812 mm^2
Hair straightening benefit (in words) (applied to hair, conclusion from the table): gives hair straightening benefits
